Read-outs that look alike come from different tables or passages of the source.
Assays:
[1] = target: T1, BChE isolated from human plasma (Homo sapiens, UniProt P06276); assay: Reversible inhibition of BChE, Ellman method; format: biochemical; conditions: for IC50: 0.1 M phosphate buffer pH 7.4, 25 °C, substrate ATCh, at least three experiments
T1 construct: BChE isolated from human plasma; from tissue; host or cells: human plasma
Experimental: Inhibition potency of novel compounds was evaluated for recombinant human AChE (prepared as described earlier[25] and kindly donated by Prof Palmer Taylor, Skaggs School of Pharmacy and Pharmaceutical Sciences, University of California at San Diego, La Jolla, USA) and BChE isolated from human plasma (kindly donated by late Dr Douglas Cerasoli and Dr David Lenz, […], Edgewood, MD). The inhibition mixture contained a 0.1 M phosphate buffer, pH 7.4, enzyme, tested compound, and reagent, 5,5'-dithiobis(2-nitrobenzoic acid) (DTNB, 0.3 mM; Sigma Chemical Co., St. Louis, MO, USA). Enzyme activity was measured upon addition of substrate, acetylthiocholine (ATCh, 0.2 or 0.1 mM; Sigma Chemical Co., St. Louis, MO, USA) by the Ellman method[26] at 25 °C and 412 nm, on a Tecan Infinite M200PRO plate reader (Tecan Austria, GmbH, Salzburg, Austria). Due to the low solubility, a stock solution of the tested compounds was prepared in DMSO or methanol (Kemika, Zagreb, Croatia), and a corresponding solvent was in controls as well. The IC50 values were determined from at least three experiments by a nonlinear fit of the compound concentration logarithm values vs. % of enzyme activity using Prism6 software (GraphPad Prism 6 Software, San Diego, USA).

recombinant human AChE = target: T2, recombinant human AChE (Homo sapiens, UniProt P22303); assay: Reversible inhibition of AChE, Ellman method; format: biochemical; conditions: 0.1 M phosphate buffer pH 7.4, 25 °C, substrate ATCh; maximal tested concentration 100 µM for the trans derivatives (DMSO inhibits AChE); read-out: IC50 AChE (IC50 ± SE)
T2 construct: made in house

[2] = read-out: IC50 BChE (IC50 ± SE)

T2 sequence (P22303 32-614): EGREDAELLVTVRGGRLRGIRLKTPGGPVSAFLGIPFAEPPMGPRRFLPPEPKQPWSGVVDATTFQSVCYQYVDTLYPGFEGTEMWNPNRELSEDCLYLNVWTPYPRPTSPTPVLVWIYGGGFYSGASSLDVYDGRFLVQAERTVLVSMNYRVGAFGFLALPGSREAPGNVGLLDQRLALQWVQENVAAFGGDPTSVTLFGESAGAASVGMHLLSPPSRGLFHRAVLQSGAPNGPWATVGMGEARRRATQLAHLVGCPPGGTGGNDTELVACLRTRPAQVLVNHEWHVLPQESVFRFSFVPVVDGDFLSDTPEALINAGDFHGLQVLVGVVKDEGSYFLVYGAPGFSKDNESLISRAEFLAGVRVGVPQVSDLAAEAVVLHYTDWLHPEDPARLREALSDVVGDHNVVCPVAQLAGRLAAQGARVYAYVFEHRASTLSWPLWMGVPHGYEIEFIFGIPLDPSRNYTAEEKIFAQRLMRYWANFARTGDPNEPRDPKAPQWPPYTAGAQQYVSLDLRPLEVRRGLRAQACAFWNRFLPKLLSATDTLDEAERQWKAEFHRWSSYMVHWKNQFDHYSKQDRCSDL
T1 sequence (P06276 29-602): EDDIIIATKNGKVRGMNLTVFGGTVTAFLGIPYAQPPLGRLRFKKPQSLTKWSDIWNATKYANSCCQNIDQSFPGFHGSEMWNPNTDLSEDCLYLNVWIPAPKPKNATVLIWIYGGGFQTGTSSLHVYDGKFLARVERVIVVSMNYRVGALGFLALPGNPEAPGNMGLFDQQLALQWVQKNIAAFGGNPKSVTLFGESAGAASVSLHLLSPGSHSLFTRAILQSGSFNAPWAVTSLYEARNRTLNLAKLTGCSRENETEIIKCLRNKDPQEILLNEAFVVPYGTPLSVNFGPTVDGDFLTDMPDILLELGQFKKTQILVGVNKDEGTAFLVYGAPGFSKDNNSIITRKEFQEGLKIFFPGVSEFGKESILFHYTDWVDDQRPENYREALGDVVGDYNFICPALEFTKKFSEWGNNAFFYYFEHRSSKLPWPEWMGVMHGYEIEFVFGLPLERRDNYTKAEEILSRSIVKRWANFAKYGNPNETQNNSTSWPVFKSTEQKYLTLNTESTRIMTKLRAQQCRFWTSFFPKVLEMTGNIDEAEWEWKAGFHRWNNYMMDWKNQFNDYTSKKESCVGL

c1ccc(CNc2ccc3ccc4ocnc4c3c2)cc1 [Compound 19, N-benzylnaphtho[1,2-d]oxazol-8-amine]
IC50 [1, 2]: 140 ± 24 µM
IC50 (recombinant human AChE): 68 ± 25 µM

Fc1ccc(CNc2ccc3ccc4ocnc4c3c2)cc1 [Compound 20, N-(4-fluorobenzyl)naphtho[1,2-d]oxazol-8-amine]
IC50 [1, 2]: 12 ± 1.3 µM
fold higher potency for BChE than counterpart trans-6 ([1]; ratio of IC50 vs trans-6): about 8 fold
IC50 (recombinant human AChE): 45 ± 17 µM

c1csc(CNc2ccc3ccc4ocnc4c3c2)c1 [Compound 21, N-(thiophen-2-ylmethyl)naphtho[1,2-d]oxazol-8-amine]
IC50 [1, 2]: 35 ± 7.1 µM
IC50 (recombinant human AChE): 51 ± 20 µM

Nc1ccc2ccc3ocnc3c2c1 [Compound 23, Naphtho[1,2-d]oxazol-8-amine]
IC50 [1, 2]: 1000 ± 650 µM
IC50 (recombinant human AChE): 120 ± 46 µM

CCN(CC)C(C)CN1c2ccccc2Sc2ccccc21 (centres unmarked) [Ethopropazine, reference compound]
IC50 ([1]; IC50 BChE (IC50 ± SE)): 0.046 ± 0.0037 µM

C(=C/c1cnco1)/c1ccc(NCc2cccs2)cc1 [cis-18, (Z)-4–(2-(oxazol-5-yl)vinyl)-N-(thiophen-2-ylmethyl)aniline]
IC50 [1, 2]: 5.7 ± 0.8 µM
times more potent inhibitor of BChE than trans-12, trans-10 and trans-8 ([1]; ratio of IC50 vs trans-12, trans-10, trans-8): about 5 times
IC50 (recombinant human AChE): 160 ± 100 µM

Nc1ccc(/C=C\c2cnco2)cc1 [cis-22, (Z)-4–(2-(oxazol-5-yl)vinyl)aniline]
IC50 [1, 2]: 110 ± 58 µM
IC50 (recombinant human AChE): 190 ± 100 µM

C(=C\c1cnco1)/c1ccc(NCc2ccccc2)cc1 [trans-2, (E)-N-benzyl-4–(2-(oxazol-5-yl)vinyl)aniline]
IC50 [1, 2]: 120 ± 22 µM
IC50 (recombinant human AChE): > 100 µM

Cc1ccc(CNc2ccc(/C=C/c3cnco3)cc2)cc1 [trans-3, (E)-N-(4-methylbenzyl)-4–(2-(oxazol-5-yl)vinyl)aniline]
IC50 [1, 2]: 120 ± 19 µM
IC50 (recombinant human AChE): > 100 µM

COc1ccc(CNc2ccc(/C=C/c3cnco3)cc2)cc1 [trans-4, (E)-N-(4-methoxybenzyl)-4–(2-(oxazol-5-yl)vinyl)aniline]
IC50 [1, 2]: 110 ± 15 µM
IC50 (recombinant human AChE): > 100 µM

Clc1ccc(CNc2ccc(/C=C/c3cnco3)cc2)cc1 [trans-5, (E)-N-(4-chlorobenzyl)-4–(2-(oxazol-5-yl)vinyl)aniline]
IC50 [1, 2]: 87 ± 12 µM
IC50 (recombinant human AChE): > 100 µM

Fc1ccc(CNc2ccc(/C=C/c3cnco3)cc2)cc1 [trans-6, (E)-N-(4-fluorobenzyl)-4–(2-(oxazol-5-yl)vinyl)aniline]
IC50 [1, 2]: 80 ± 10 µM
IC50 (recombinant human AChE): > 100 µM

Cc1cccc(CNc2ccc(/C=C/c3cnco3)cc2)c1 [trans-7, (E)-N-(3-methylbenzyl)-4–(2-(oxazol-5-yl)vinyl)aniline]
IC50 [1, 2]: 130 ± 26 µM
IC50 (recombinant human AChE): > 100 µM

COc1cccc(CNc2ccc(/C=C/c3cnco3)cc2)c1 [trans-8, (E)-N-(3-methoxybenzyl)-4–(2-(oksazol-5-yl)vinyl)aniline]
IC50 [1, 2]: 36 ± 4.4 µM
IC50 (recombinant human AChE): > 100 µM

Fc1cccc(CNc2ccc(/C=C/c3cnco3)cc2)c1 [trans-10, (E)-N-(3-fluorobenzyl)-4–(2-(oxazol-5-yl)vinyl)aniline]
IC50 [1, 2]: 32 ± 5.2 µM
IC50 (recombinant human AChE): > 100 µM

Cc1ccccc1CNc1ccc(/C=C/c2cnco2)cc1 [trans-11, (E)-N-(2-methylbenzyl)-4–(2-(oxazol-5-yl)vinyl)aniline]
IC50 [1, 2]: 160 ± 35 µM
fold lower BChE binding affinity than the most potent inhibitor trans-12 ([1]; ratio of IC50 vs trans-12): 5.5 fold
IC50 (recombinant human AChE): > 100 µM

COc1ccccc1CNc1ccc(/C=C/c2cnco2)cc1 [trans-12, (E)-N-(2-methoxybenzyl)-4–(2-(oxazol-5-yl)vinyl)aniline]
IC50 [1, 2]: 28 ± 5.2 µM
IC50 (recombinant human AChE): > 100 µM

C(=C\c1cnco1)/c1ccc(NCc2ccco2)cc1 [trans-17, (E)-N-(furan-2-ylmethyl)-4–(2-(oxazol-5-yl)vinyl)aniline]
IC50 [1, 2]: 65 ± 10 µM
IC50 (recombinant human AChE): > 100 µM
